Measurements: US20030229053A1, “Compounds and methods for the treatment or prevention of flavivirus infections” (Shire BioChem Inc., priority 2001, published 2003)

biological target: recombinant HCV NS5B (Hepatitis C virus genotype 1b, UniProt P26663); assay: biochemical; conditions: flashplate, polyrA/biotinylated-oligo dT, 100 nM NS5B, 2 hrs at room temperature; read-out: RNA pol Assay 2 IC50 (μm)
Procedure: In vitro HCV RdRp Flashplate Scintillation Proximity Assay (Strep-Flash Assay) Used to Evaluate Analogues:
In brief, a 400 ng/μl polyrA solution (Amersham Pharmacia Biotech) was mixed volume-to-volume with 5′ biotin-oligo dT12 at 20 pmol/μl. The template and primers were denatured at 95 C for 5 minutes then incubated at 37 C for 10 minutes. Annealed template-primers were subsequently diluted in a Tris-HCl containing buffer and allowed to bind to streptavidin-coated flashplates overnight.

recombinant HCV NS5B, sequence (P26663 2420-3010 limits assumed): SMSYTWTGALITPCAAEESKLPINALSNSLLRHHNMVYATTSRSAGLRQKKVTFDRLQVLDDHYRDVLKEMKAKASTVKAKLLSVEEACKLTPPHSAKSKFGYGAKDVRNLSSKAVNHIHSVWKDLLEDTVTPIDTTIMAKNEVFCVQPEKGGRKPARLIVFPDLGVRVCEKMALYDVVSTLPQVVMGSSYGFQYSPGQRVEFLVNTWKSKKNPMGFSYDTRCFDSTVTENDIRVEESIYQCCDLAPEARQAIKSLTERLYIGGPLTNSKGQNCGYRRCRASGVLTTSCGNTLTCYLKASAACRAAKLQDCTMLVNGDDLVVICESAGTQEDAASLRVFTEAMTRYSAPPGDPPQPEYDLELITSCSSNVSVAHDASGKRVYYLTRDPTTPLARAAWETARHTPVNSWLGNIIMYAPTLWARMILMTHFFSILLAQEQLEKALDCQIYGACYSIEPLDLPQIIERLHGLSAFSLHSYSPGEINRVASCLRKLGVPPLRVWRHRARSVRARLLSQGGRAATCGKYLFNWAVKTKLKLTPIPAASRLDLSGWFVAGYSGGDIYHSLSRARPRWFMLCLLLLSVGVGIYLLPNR

SMILES | IC50 [µM]
O=C(O)[C@H](Cc1ccccc1)N(Cc1csc([N+](=O)[O-])c1)C(=O)c1ccc(Cl)cc1Cl [compound #149, (2s)-2-[(2,4-Dichloro-benzoyl)-(5-nitro-thiophen-3-ylmethyl)-amino]-3-phenyl-propionic acid] | < 5
CS(=O)(=O)c1ccc(CN(C(=O)c2ccc(Cl)cc2Cl)[C@@H](Cc2ccccc2)C(=O)O)cc1 [compound #150, (2s)-2-[(2,4-Dichloro-benzoyl)-(4-methanesulfonyl-benzyl)-amino]-3-phenyl-propionic acid] | < 5
COc1cccc(CN(C(=O)c2ccc(Cl)cc2Cl)[C@@H](Cc2ccccc2)C(=O)O)c1 [compound #151, (2s)-2-[(2,4-Dichloro-benzoyl)-(3-methoxy-benzyl)-amino]-3-phenyl-propionic acid] | < 5
Cc1cccc(CN(C(=O)c2ccc(Cl)cc2Cl)[C@@H](Cc2ccccc2)C(=O)O)c1 [compound #152, (2s)-2-[(2,4-Dichloro-benzoyl)-(3-methyl-benzyl)-amino]-3-phenyl-propionic acid] | < 5
O=C(O)[C@H](Cc1ccccc1)N(Cc1sccc1-c1cc(F)cc(F)c1)C(=O)c1ccc(Cl)cc1Cl [compound #154, (2s)-2-{(2,4-Dichloro-benzoyl)-[3-(3,5-difluoro-phenyl)-thiophen-2-ylmethyl]-amino}-3-phenyl-propionic acid] | < 5
O=C(O)[C@H](Cc1ccccc1)N(Cc1sccc1-c1ccc(Cl)c(Cl)c1)C(=O)c1ccc(Cl)cc1Cl [compound #155, (2s)-2-{(2,4-Dichloro-benzoyl)-[3-(3,4-dichloro-phenyl)-thiophen-2-ylmethyl]-amino}-3-phenyl-propionic acid] | < 5
O=C(O)[C@H](Cc1ccccc1)N(Cc1sccc1-c1ccc(Cl)c(F)c1)C(=O)c1ccc(Cl)cc1Cl [compound #156, (2s)-2-[[3-(4-Chloro-3-fluoro-phenyl)-thiophen-2-ylmethyl]-(2,4-dichloro-benzoyl)-amino]-3-phenyl-propionic acid] | 5 to 20
O=C(O)[C@H](Cc1ccccc1)N(Cc1sccc1-c1ccc(Cl)cc1Cl)C(=O)c1ccc(Cl)cc1Cl [compound #157, (2s)-2-{(2,4-Dichloro-benzoyl)-[3-(2,4-dichloro-phenyl)-thiophen-2-ylmethyl]-amino}-3-phenyl-propionic acid] | 5 to 20
CCOC(=O)c1ccccc1-c1ccsc1CN(C(=O)c1ccc(Cl)cc1Cl)[C@@H](Cc1ccccc1)C(=O)O [compound #159, (2s)-2-(2-{[(1s-1-Carboxy-2-phenyl-ethyl)-(2,4-dichloro-benzoyl)-amino]-methyl}-thiophen-3-yl)-benzoic acid ethyl ester] | 5 to 20
O=C(O)[C@H](Cc1ccccc1)N(Cc1sccc1-c1cccc(F)c1)C(=O)c1ccc(Cl)cc1Cl [compound #161, (2s)-2-{(2,4-Dichloro-benzoyl)-[3-(3-fluoro-phenyl)-thiophen-2-ylmethyl]-amino}-3-phenyl-propionic acid] | 5 to 20
CC(C)(C)OC(=O)N1CCC[C@@H]1CN(C(=O)c1ccc(Cl)cc1Cl)[C@@H](Cc1ccccc1)C(=O)O [compound #165, d-2-{[(1-carboxy-2-phenyl-ethyl)-(2,4-dichloro-benzoyl)-amino]-methyl}-pyrrolidine-1-carboxylic acid #tert!-butyl ester] | 5 to 20
O=C(O)[C@H](Cc1ccccc1)N(C[C@@H]1CCCN1)C(=O)c1ccc(Cl)cc1Cl [compound #167, 1-2-[(2,4-Dichloro-benzoyl)-pyrrolidin-2-ylmethyl-amino]-3-phenyl-propionic acid] | 5 to 20
O=C(O)C(Cc1ccccc1)N(Cc1ccc(C(F)(F)F)cc1)C(=O)c1ccc(Cl)cc1Cl (centres unmarked) [compound #171, 2-[(2,4-Dichloro-benzoyl)-(4-trifluoromethyl-benzyl)-amino]-3-phenyl-propionic acid] | 5 to 20
O=C(O)C(Cc1ccccc1)N(Cc1ccc(OCc2ccc(F)cc2)cc1)C(=O)c1ccc(Cl)cc1Cl (centres unmarked) [compound #172, 2-{(2,4-Dichloro-benzoyl)-[4-(4-fluoro-benzyloxy)-benzyl]-amino}-3-phenyl-propionic acid] | 5 to 20
O=C(O)C(Cc1ccccc1)N(Cc1ccc(F)c(C(F)(F)F)c1)C(=O)c1ccc(Cl)cc1Cl (centres unmarked) [compound #173, 2-[(2,4-Dichloro-benzoyl)-(4-fluoro-3-trifluoromethyl-benzyl)-amino]-3-phenyl-propionic acid] | 5 to 20
O=C(O)C(Cc1ccccc1)N(Cc1cccn1S(=O)(=O)c1ccccc1)C(=O)c1ccc(Cl)cc1Cl (centres unmarked) [compound #174, 2-[(1-Benzenesulfonyl-1h-pyrrol-2-ylmethyl)-(2,4-dichloro-benzoyl)-amino]-3-phenyl-propionic acid] | 5 to 20
O=C(O)C(Cc1ccccc1)N(Cc1ccccc1OCc1ccccc1)C(=O)c1ccc(Cl)cc1Cl (centres unmarked) [compound #177, 2-[(2-Benzyloxy-benzyl)-(2,4-dichloro-benzoyl)-amino]-3-phenyl-propionic acid] | 5 to 20
COc1ccc(C(C)C)cc1-c1ccsc1CN(C(=O)c1ccc(Cl)cc1Cl)[C@@H](Cc1ccccc1)C(=O)O [compound #178, 2-{(2,4-Dichloro-benzoyl)-[3-(5-isopropyl-2-methoxy-phenyl)-thiophen-2-ylmethyl]-amino}-3-phenyl-propionic acid] | 5 to 20
O=C(O)[C@H](Cc1ccccc1)N(Cc1sccc1-c1ccc(OC(F)(F)F)cc1)C(=O)c1ccc(Cl)cc1Cl [compound #179, 2-{(2,4-Dichloro-benzoyl)-[3-(4-trifluoromethoxy-phenyl)-thiophen-2-ylmethyl]-amino}-3-phenyl-propionic acid] | 5 to 20
O=C(O)[C@H](Cc1ccccc1)N(Cc1sccc1-c1ccncc1)C(=O)c1ccc(Cl)cc1Cl [compound #182, 2-[(2,4-Dichloro-benzoyl)-(3-pyridin-4-yl-thiophen-2-ylmethyl)-amino]-3-phenyl-propionic acid] | 5 to 20

Next, values leading:

IC50 [µM] | SMILES
< 5 | O=C(O)[C@H](Cc1ccccc1)N(Cc1cnc(-c2cccc(C(F)(F)F)c2)s1)C(=O)c1ccc(Cl)cc1Cl [compound #148, (2s)-2-{(2,4-Dichloro-benzoyl)-[2-(3-trifluoromethyl-phenyl)-thiazol-5-ylmethyl]-amino}-3-phenyl-propionic acid]
5 to 20 | Cn1nc(C(F)(F)F)c(CN(C(=O)c2ccc(Cl)cc2Cl)[C@@H](Cc2ccccc2)C(=O)O)c1Oc1cccc(Cl)c1 [compound #153, (2s)-2-[[5-(3-Chloro-phenoxy)-1-methyl-3-trifluoromethyl-1h-pyrazol-4-ylmethyl]-(2,4-dichloro-benzoyl)-amino]-3-phenyl-propionic acid]
< 5 | Cc1cccc(-c2ccsc2CN(C(=O)c2ccc(Cl)cc2Cl)[C@@H](Cc2ccccc2)C(=O)O)c1 [compound #158, (2s)-2-[(2,4-Dichloro-benzoyl)-(3-m-tolyl-thiophen-2-ylmethyl)-amino]-3-phenyl-propionic acid]
< 5 | CCOC(=O)c1ccc(-c2ccsc2CN(C(=O)c2ccc(Cl)cc2Cl)[C@@H](Cc2ccccc2)C(=O)O)cc1 [compound #160, (2s)-4-(2-{[(1s-1-Carboxy-2-phenyl-ethyl)-(2,4-dichloro-benzoyl)-amino]-methyl}-thiophen-3-yl)-benzoic acid ethyl ester]
< 5 | N#Cc1cccc(-c2ccsc2CN(C(=O)c2ccc(Cl)cc2Cl)[C@@H](Cc2ccccc2)C(=O)O)c1 [compound #162, (2s)-2-[[3-(3-Cyano-phenyl)-thiophen-2-ylmethyl]-(2,4-dichloro-benzoyl)-amino]-3-phenyl-propionic acid]
5 to 20 | O=C(O)C(c1cccs1)N(Cc1ccc(-c2cccc(C(F)(F)F)c2)o1)C(=O)c1ccc(Cl)cc1Cl (centres unmarked) [compound #163, {(2,4-Dichloro-benzoyl)-[5-(3-trifluoromethyl-phenyl)-furan-2-ylmethyl]-amino}-thiophen-2-yl-acetic acid]
5 to 20 | CC(C)(C)OC(=O)N1CCC[C@H]1CN(C(=O)c1ccc(Cl)cc1Cl)[C@@H](Cc1ccccc1)C(=O)O [compound #164, L-2-{[(1-Carboxy-2-phenyl-ethyl)-(2,4-dichloro-benzoyl)-amino]-methyl}-pyrrolidine-1-carboxylic acid #tert!-butyl ester]
5 to 20 | O=C(O)[C@H](Cc1ccccc1)N(C(=O)c1ccc(Cl)cc1Cl)C1CCN(C(=O)OCc2ccccc2)CC1 [compound #166, 4-[(1-Carboxy-2-phenyl-ethyl)-(2,4-dichloro-benzoyl)-amino]-piperidine-1-carboxylic acid benzyl ester]
5 to 20 | O=C(O)[C@H](Cc1ccccc1)N(Cc1cccnc1)C(=O)c1ccc(Cl)cc1Cl [compound #170, 2-[(2,4-Dichloro-benzoyl)-pyridin-3-ylmethyl-amino]-3-phenyl-propionic acid]
5 to 20 | O=C(O)C(Cc1ccccc1)N(Cc1cccc(Oc2ccc(Cl)cc2)c1)C(=O)c1ccc(Cl)cc1Cl (centres unmarked) [compound #175, 2-[[3-(4-Chloro-phenoxy)-benzyl]-(2,4-dichloro-benzoyl)-amino]-3-phenyl-propionic acid]
5 to 20 | O=C(O)[C@H](Cc1ccccc1)N(Cc1sccc1-c1cccc(C(F)(F)F)c1)C(=O)c1ccc(Cl)cc1Cl [compound #180, 2-{(2,4-Dichloro-benzoyl)-[3-(3-trifluoromethyl-phenyl)-thiophen-2-ylmethyl]-amino}-3-phenyl-propionic acid]
5 to 20 | O=C(O)[C@H](Cc1ccccc1)N(Cc1sccc1-c1cc(C(F)(F)F)cc(C(F)(F)F)c1)C(=O)c1ccc(Cl)cc1Cl [compound #181, 2-[[3-(3,5-Bis-trifluoromethyl-phenyl)-thiophen-2-ylmethyl]-(2,4-dichloro-benzoyl)-amino]-3-phenyl-propionic acid]
